Test results reported in EP0293500A1, “3-heteroalkyl-2,4.quinzaoline-diones” (AMERICAN CYANAMID COMPANY, priority 1987, dated 1988).
Counter-ions that a name gives are not always drawn.

Columns and labels:
[1] = test system: spontaneously hypertensive rats of the Okamoto strain; assay: Hypotensive activity in spontaneously hypertensive rats (method of Chan and Poorvin); type: in vivo; details: male SHR, average MABP 160±1.5 mm of mercury; gavage, 100 mg/kg or less, second identical dose 24 hours later; MABP at 28 hours after the initial dose; number of rats in brackets
Method: The novel compounds of the present invention are also active hypotensive agents and were tested for hypotensive activity by the method of P. S. Chan and b. Poorvin, Clinical and Experimental Hypertension, 1 (6), 817-830 (1979). Male, 16 week old, spontaneously hypertensive rats of the Okamoto strain, from Taconic Farms, Germantown, New York having an average mean arterial blood pressure of 160±1.5 mm of mercury were used in the test. […] A second identical dose of the test compound, without sodium chloride loading is given 24 hours later. At 28 hours after the initial dose, the mean arterial blood pressure (MABP) is measured by the method of Chan and Poorvin vide supra. The procedure is repeated in a second and third rat when necessary. The results of this test on representative compounds of the present invention appear in Table II below.

[2] = target: T1, thromboxane synthetase (Rattus norvegicus, UniProt P49430); assay: Inhibition of thromboxane (TX) formation (TXB2 radioimmunoassay) in washed rat platelets; type: cell-based, Okamoto-Aoki spontaneously hypertensive rats (SHR); details: percent inhibition of TXB2 formation; drug at 10^-4M; SHR platelet suspension, 10 minutes at 37 C
T1 construct: The platelets were isolated by centrifuging the PRP for 10 minutes at 1060xg; from tissue; host or cells: washed blood platelets from Okamoto-Aoki spontaneously hypertensive rats (SHR)
T1 sequence (P49430 1-533): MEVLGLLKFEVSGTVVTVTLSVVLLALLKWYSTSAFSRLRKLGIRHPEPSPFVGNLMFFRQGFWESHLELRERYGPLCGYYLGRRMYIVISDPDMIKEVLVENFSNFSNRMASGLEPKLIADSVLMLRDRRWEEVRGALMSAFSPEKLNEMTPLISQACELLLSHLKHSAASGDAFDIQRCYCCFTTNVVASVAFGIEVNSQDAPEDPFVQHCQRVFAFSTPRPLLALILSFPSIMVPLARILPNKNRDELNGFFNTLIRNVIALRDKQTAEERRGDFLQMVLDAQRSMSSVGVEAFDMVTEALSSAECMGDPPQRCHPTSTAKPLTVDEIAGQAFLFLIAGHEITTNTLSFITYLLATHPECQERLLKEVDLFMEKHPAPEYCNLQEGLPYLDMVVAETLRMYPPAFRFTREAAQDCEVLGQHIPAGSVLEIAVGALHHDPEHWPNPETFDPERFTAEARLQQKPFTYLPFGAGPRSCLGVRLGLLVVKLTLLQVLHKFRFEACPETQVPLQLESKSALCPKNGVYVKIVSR
From the text: The platelet rich plasma (PRP) was separated. […] The inhibition of thromboxane (TX) formation was studied by determing the concentration of thromboxane […] (TXB2), the stable hydrolysis product of TXA2.

Row | SMILES | inhibition at 100 µM [2] | MABP/mm Hg (no. of rats) [1]
1 | CC(CCn1cnc2ccccc2c1=O)n1ccnc1.O=C(O)/C=C/C(=O)O (stereo not shown) [3-[3-(1H-Imidazol-1-yl)butyl]-4(3H)-quinazolinone, fumarate salt] | – | 119(2) mm Hg
2 | O=c1c2ccccc2nnn1CCCn1ccnc1 [3-[3-(1H-Imidazol-1-yl)propyl]-1,2,3-benzotriazin-4(3H)-one] | 97% | 111(2) mm Hg
3 | O=c1c2cc(Cl)ccc2nnn1CCCCn1ccnc1 [6-Chloro-3-[4-(1H-imidazol-1-yl)butyl]-1,2,3-benzotriazin-4(3H)-one, monohydro-chloride] | 97% | –
4 | O=c1[nH]c2ccccc2c(=O)n1CCCCc1cccnc1 [Example 22, 3-[4-(3-Pyridinyl)butyl]-2,4(1H,3H)-quinazolinedione] | 99% | –
5 | O=c1[nH]c2ccc(Cl)cc2c(=O)n1CCCCCn1ccnc1 [Example 32, 6-Chloro-3-[5-(1H-imidazol-1-yl)pentyl]-2,4(1H,3H)-quinazolinedione] | 63% | –
6 | O=c1[nH]c2ccc(Cl)cc2c(=O)n1CCC(c1ccccc1)n1ccnc1 (stereo not shown) [Example 36, 6-Chloro-3-[3-(1H-imidazol-1-yl)-3-phenylpropyl]-2,4(1H,3H)-quinazolinedione] | 93% | –
7 | O=c1[nH]c2c(Cl)cc(Cl)cc2c(=O)n1CCCCn1ccnc1 [Example 46, 6,8-Dichloro-3-[4-(1H-imidazol-1-yl)-butyl]-2,4(1H,3H)-quinazolinedione] | 89% | –
8 | Cc1ccc2c(=O)n(CCCCn3ccnc3)c(=O)[nH]c2c1C [Example 50, 7,8-Dimethyl-3-[4-(1H-imidazol-1-yl)-butyl]-2,4(1H,3H)-quinazolinedione] | – | 104(2) mm Hg
9 | O=c1c2ccc(Cl)cc2nnn1CCCCn1ccnc1 [Example 80, 7-Chloro-3-[4-(1H-imidazol-1-yl)-butyl]-1,2,3-benzotriazin-4(3H)-one] | 90% | –
10 | O=c1c2cc(Cl)cc(Cl)c2nnn1CCCCn1ccnc1 [Example 81, 6,8-Dichloro-3-[4-(1H-imidazol-1-yl)butyl]-1,2,3-benzotriazin-4(3H)-one, monohydrochloride] | 93% | –
11 | CC(Cn1ccnc1)Cn1nnc2ccc(Br)cc2c1=O (stereo not shown) [Example 83, 6-Bromo-3-[3-(1H-imidazol-1-yl)--2-methylpropyl]-1,2,3-benzo-triazin-4(3H)-one] | 99% | –
12 | O=c1c2cc(Cl)ccc2nnn1CCCCn1ccnc1 [Example 88, 6-Chloro-3-[4-(1H-imidazol-1-yl)-butyl]-1,2,3-benzotriazin-4(3H)-one] | – | 105(2) mm Hg
13 | Cc1cn(CCCn2nnc3ccc(Cl)cc3c2=O)cn1 [Example 92, 6-Chloro-3-[3-(4-methyl-1H-imida-zol-1-yl)propyl]-1,2,3-benzotria-zin-4(3H)-one] | 85% | –
14 | O=c1c2cccc(C(F)(F)F)c2nnn1CCCCn1ccnc1 [Example 94, 3-[4-(1H-Imida-zol-1-yl)butyl]-8-trifluoro-methyl-1,2,3-benzotriazin-4(3H)-one] | 86% | –
15 | O=c1c2cccc(C(F)(F)F)c2nnn1CCCCCn1ccnc1 [Example 95, 3-[5-(1H-Imida-zol-1-yl)pentyl]-8-trifluoro-methyl-1,2,3-benzotriazin-4(3H)-one] | 87% | –
16 | Cc1cn(CCCn2cnc3ccccc3c2=O)cn1 [Example 133, 3-[3-(4-Methyl-1H-imidazol-1-yl)propyl]-4(3H)-quinazolinone] | 74% | –
17 | O=c1c2ccccc2ncn1CCCCc1cccnc1 [Example 135, 3-[4-(3-Pyridyl)butyl]-4(3H)-quina-zolinone, dihydrochloride] | 99% | –
18 | O=c1c2ccccc2ncn1CCCCCCn1ccnc1 [Example 136, 3-[6-(1H-Imidazol-1-yl)hexyl]-4(3H)-quinazolinone, dihydrochloride] | 86% | –
19 | Cl.Cl.O=c1c2ccccc2ncn1CCCCCn1ccnc1 [Example 137, 3-[5-(1H-Imidazol-1-yl)pentyl]-4(3H)-quinazolinone, dihydrochloride] | – | 110(2) mm Hg
20 | CC(Cn1ccnc1)Cn1cnc2ccc(Cl)cc2c1=O (stereo not shown) [Example 141, 6-Chloro-3-[3-(1H-imidazol-1-yl)-2-methylpropyl]-4(3H)quinazolinone] | 94% | –
21 | O=c1c2ccc(Cl)cc2ncn1CCCCn1ccnc1 [Example 149, 7-Chloro-3-(4-(1H-imidazol-1-yl)butyl]-4(3H)-quinazolinone] | – | 126(2) mm Hg
22 | CCc1nc2ccc(Cl)cc2c(=O)n1CCCn1ccnc1 [Example 158, 6-Chloro-2-ethyl-3-[3-(1H-imidazol-1-yl)propyl]-4(3H)-quinazolinone] | – | 120(4) mm Hg

Further lines, with some results ahead:

Row | inhibition at 100 µM [2] | SMILES | MABP/mm Hg (no. of rats) [1]
23 | 99% | O=c1c2cc(Br)ccc2ncn1CCCCc1cccnc1 [6-Bromo-3-[4-(3-pyridyl)butyl]-4(3H)-quinazolinone] | –
24 | 93% | CC(Cn1ccnc1)Cn1nnc2ccc(Cl)cc2c1=O (stereo not shown) [6-Chloro-3-[3-(1H-imidazol-1-yl)-2-methyl-propyl]-1,2,3-benzotriazin-4(3H)-one, mono-hydrochloride] | –
25 | 100% | O=c1[nH]c2ccc([N+](=O)[O-])cc2c(=O)n1CCCn1ccnc1 [Example 15, 3-[3-(1H-Imidazol-1-yl)propyl]-6-nitro-2,4(1H,3H)-quinazolinedione] | –
26 | 52% | O=c1[nH]c2ccc(Cl)cc2c(=O)n1CCCn1ccnc1-c1ccccc1 [Example 27, 6-Chloro-3-[3-(2-phenyl-1H-imidazol-1-yl)propyl]-2,4(1H,3H)-quinazolinedione] | –
27 | 100% | O=c1[nH]c2ccc(Cl)cc2c(=O)n1CCCCc1cccnc1 [Example 29, 6-Chloro-3-[4-(3-pyridinyl)butyl]-2,4(1H,3H)-quinazolinedione] | –
28 | 71% | CC(Cn1ccnc1)Cn1c(=O)[nH]c2c(Cl)cccc2c1=O (stereo not shown) [Example 45, 8-Chloro-3-[3-(1H-imidazol-1-yl)-2-methylpropyl]-2,4(1H,3H)-quinazolinedione] | –
29 | 67% | CC(CCn1c(=O)[nH]c2c(Cl)cc(Cl)cc2c1=O)n1ccnc1 (stereo not shown) [Example 47, 6,8-Dichloro-3-[3-(1H-imidazol-1-yl)-butyl]-2,4(1H,3H)-quinazolinedione] | –
30 | 86% | CC(Cn1ccnc1)Cn1c(=O)[nH]c2c(Cl)cc(Cl)cc2c1=O (stereo not shown) [Example 48, 6,8-Dichloro-3-[3-(1H-imidazol-1-yl)-2-methylpropyl]-2,4(1H,3H)-quinazoline-dione] | –
31 | 100% | O=c1[nH]c2ccc(Br)cc2c(=O)n1CCCn1ccnc1 [Example 51, 6-Bromo-3-[3-(1H-imidazol-1-yl)propyl]-2,4(1H,3H)-quinazolinedione] | –
32 | 92% | CC(Cn1ccnc1)Cn1nnc2ccccc2c1=O (stereo not shown) [Example 78, 3-[3-(1H-Imidazol-1-yl)-2-methyl-propyl]-1,2,3-benzotriazin-4(3H)-one, monohydrochloride] | –
33 | 95% | Cc1ccc2nnn(CC(C)Cn3ccnc3)c(=O)c2c1 (stereo not shown) [Example 85, 3-[3-(1H-Imidazol-1-yl)-2-methyl-propyl]-6-methyl-1,2,3-benzo-triazin-4(3H)-one, monohydro-chloride] | –
34 | 75% | O=c1c2ccccc2nnn1CCCCc1cccnc1 [Example 90, 3-[4-(3-Pyridin-yl)butyl]-1,2,3-benzotriazin-4(3H)-one] | –
35 | 80% | O=c1c2cc(Cl)ccc2nnn1CCCCCCCCCCn1ccnc1 [Example 91, 6-Chloro-3-[10-(1H-imidazol-1-yl)decyl]-1,2,3-benzotriazin-4(3H)-one, fumarate] | –
36 | 85% | O=c1c2cc(Cl)ccc2nnn1CCCCc1cccnc1 [Example 93, 6-Chloro-3-[4-(3-pyridinyl)butyl]-1,2,3-benzotria-zin-4(3H)-one] | –
37 | 100% | O=c1c2cc(Cl)ccc2ncn1CCCCc1cccnc1 [Example 142, 6-Chloro-3-[4-(3-pyridyl)butyl]-4(3H)-quinazolinone] | –
38 | 96% | O=c1c2cc(Cl)ccc2ncn1CCCn1ccnc1-c1ccccc1 [Example 144, 6-Chloro-3-[3-(2-phenyl-1H-imidazol-1-yl)propyl]-4(3H)-quinazolinone, dihydro-chloride] | –
39 | 79% | O=c1c2cc(Cl)ccc2ncn1CCC(c1ccccc1)n1ccnc1 (stereo not shown) [Example 148, 6-Chloro-3-[3-(1H-imidazol-1-yl)-3-phenylpropyl]-4-(3H)-quinazolinone] | –
